Test results reported in patent publication US20240277829A1, “HIV-1 VACCINATION AND SAMT-247 MICROBICIDE TO PREVENT HIV-1 INFECTION” (priority 2021, published 2024).

Experiments:
[1] = test system: macaque rectal mucosal NK cells; assay: Frequencies and cytokine levels of macaque rectal mucosal NK/ILCs following SAMT-247 and PMA stimulation; format: cell-based
Description: Additionally, rectal tissue from 9 macaques was used for an in vitro study. The age-matched macaques from this separate study (P204) included 4 animals vaccinated against HIV and 5 naïve animals, all challenged with SHIV. Rectal tissue was obtained post challenge from 7 infected and 2 uninfected animals for the P204 study analysis. Extra cells were available from that collection and were used here for the in vitro study.
Frequencies and cytokine levels of macaque rectal mucosal NK cells and T cells following SAMT-247 and PMA stimulation. NK/ILC and T cell frequencies and cytokine levels were measured in macaque rectal mucosa. Freshly collected rectal biopsies were processed to single cells and cultured in R10 in the presence/or absence of SAMT-247 and/or PMA for 12 hours. Subsequently, cells were stained for live cells with Live/Dead Blue dye (cat. #L34962, 0.5 μl) from Thermofisher; followed by surface staining with the following: BUV737 anti-CD3 (SP34-2; cat. #741872, 5 μl), BV711 anti-CD4 (L200; cat. #563913, 5 μl), BV650 anti-NKp44 (P44-8; cat. #744302, 5 μl), Alexa700 anti-CD20 (2H7; cat. #560631, 5 μl), BV786 anti-CD45 (D058-1283; cat. #563861, 5 μl) from BD Biosciences; APC-H7 anti-CD11b (ICRF44; cat. #47-0118-42, 5 μl), PE-Cy5 anti-CD95 (ICRF44; cat. #15-0959-42, 5 μl) from eBioscience; BV570 anti-CD8 (RPA-T8; cat. #301038, 5 μl), BV605 anti-CCR6 (G034E3; cat. #353420, 5 μl), APC anti-CXCR3 (G025H7; cat. #353708, 5 μl), from Biolegend and PE-Cy7 anti-NKG2A (Z199; cat. #B10246, 5 μl) from Beckman coulter for 30 minutes at room temperature. This was followed by permeabilization with a FOX3-transcription buffer set (cat. #00-5523-00) from eBioscience according to the manufacture's recommendation and subsequently intracellular staining with the following: BV750 anti-TNF-α (MAB11; cat. #566359, 5 μl), BUV395 anti-IFN-γ (B27; cat. #563563, 5 μl), BV510 anti-GranB (GB11; cat. #563388, 5 μl), BV421 anti-IL-10 (JES3-9D7; cat. #564053, 5 μl) from BD Biosciences; PE-Cy5.5 anti-IL-17 (BL168; cat. #512314, 5 μl) from Biolegend; and FITC anti-Perforin (pf-344; cat. #3465-7, 5 μl) from MABTECH for 30 minutes at room temperature. Flow cytometry acquisitions were performed on a FACSymphony A5 and examined using FACSDiva software (BD Biosciences).

NKG2A^+ NK cells = assay: Intracellular cytokines of human blood NK cells using SAMT-247 and PMA stimulation with or without zinc chelator; format: cell-based; details: human PBMCs
Method: Intracellular cytokines of Human blood NK cells using SAMT-247 and PMA stimulation with or without zinc chelator. The levels of NKG2A^+ NK cells were measured in blood of healthy humans. Human PBMCs were thawed and cultured in R10 in the presence or absence of SAMT-247 and/or PMA for 12 hours. Cells were incubated with or without Zinc chelator TPEN (cat. #P4413-100 MG, 5 μM) for 12 h. Subsequently, PBMCs were surface stained with the following: BUV737 anti-CD3 (SP34-2; cat. #741872, 5 μl), Alexa700 anti-CD20 (2H7; cat. #560631, 5 μl), BV786 anti-CD45 (HI30; cat. #563716, 5 μl) from BD Biosciences; APC-H7 anti-CD11b (ICRF44; cat. #47-0118-42, 5 μl) from eBioscience and PE-Cy7 anti-NKG2A (Z199; cat. #B10246, 5 μl) from Beckman coulter for 30 minutes at room temperature. This was followed by permeabilization with FOX3-transcription buffer set (cat. #00-5523-00) from eBioscience according to the manufacture's recommendation and subsequently intracellular staining with the following: BV750 anti-TNF-α (MAB11; cat. #566359, 5 μl), BUV396 anti-IFN-γ (B27; cat. #563563, 5 μl), BV510 anti-GranB (GB11; cat. #563388, 5 μl) from BD Biosciences; and FITC anti-Perforin (pf-344; cat. #3465-7, 5 μl) from MABTECH for 30 minutes at room temperature. Flow cytometry acquisitions were performed on a FACSymphony A5 and examined using FACSDIVA™ software (BD Biosciences).

[2] = macaque rectal mucosal NK cells, PMA

## CC(=O)Sc1ccccc1C(=O)NCCC(N)=O [SAMT-247]
[1]; NKp44^+, Mucosa, PMA
  Cytokine: >IL-17
  Function: >Epithelium
[1]; [2]
  IFN-γ and TNF-α production: decreased
  NKG2A^+ cells expressing granzyme B and perforin: increased
[1]; mucosal cells from 9 macaques exposed in vitro
  percentage of NKp44^+ cells producing IL-17: augmented
[1]; mucosal cells in vitro
  ability of NKG2A^−NKp44^− cells to produce IFN-γ: tended to decrease
  frequency of the NKG2A^−NKp44^− population: decreased
NKG2A^+ NK cells; absence of PMA stimulation
  expression of granzyme, perforin, or cytokines: did not affect
NKG2A^+ NK cells; presence of PMA
  percentage of IFN-γ and TNF-α producing NKG2A^+ cells: decreased
  percentage of NKG2A^+ NK cells expressing granzyme B and perforin: increased
